Data as given in PubChem BioAssay AID1259407 (Chemical Carcinogenesis Research Information System (CCRIS), 2018).
The source made the active and inactive calls. How the calls were made is not given here.

Tested on: CCRIS mutagenicity, Ames/micronucleus/aberration tests
Assay: CCRIS mutagenicity studies
[1] = Test System: AMES SALMONELLA TYPHIMURIUM, Strain/Indicator: TA102, Metabolic Activation: NONE, Method: STANDARD PLATE
[2] = Test System: AMES SALMONELLA TYPHIMURIUM, Strain/Indicator: TA98, Metabolic Activation: NONE, Method: PREINCUBATION
[3] = Test System: AMES SALMONELLA TYPHIMURIUM, Strain/Indicator: TA100, Metabolic Activation: NONE, Method: PREINCUBATION
[4] = Test System: AMES SALMONELLA TYPHIMURIUM, Strain/Indicator: TA1535, Metabolic Activation: NONE, Method: PREINCUBATION
[5] = Test System: AMES SALMONELLA TYPHIMURIUM, Strain/Indicator: TA1537, Metabolic Activation: NONE, Method: PREINCUBATION
[6] = Test System: AMES SALMONELLA TYPHIMURIUM, Strain/Indicator: TA98, Metabolic Activation: NONE, Method: STANDARD PLATE
[7] = Test System: AMES SALMONELLA TYPHIMURIUM, Strain/Indicator: TA100, Metabolic Activation: NONE, Method: STANDARD PLATE
[8] = Test System: AMES SALMONELLA TYPHIMURIUM, Strain/Indicator: TA100, Metabolic Activation: RAT, LIVER, S-9, AROCLOR 1254, Method: STANDARD PLATE

## CCOC(=O)CCl
[1]
  mutagenic call: inactive; negative
Test System: AMES SALMONELLA TYPHIMURIUM, Strain/Indicator: TA2638, Metabolic Activation: NONE, Method: STANDARD PLATE
  mutagenic call: inactive; negative
Test System: E. COLI, Strain/Indicator: WP2 (PKM101), Metabolic Activation: NONE, Method: STANDARD PLATE
  mutagenic call: inactive; negative
Test System: E. COLI, Strain/Indicator: WP2 UVRA (PKM101), Metabolic Activation: NONE, Method: STANDARD PLATE
  mutagenic call: inactive; negative

## O=C1OCCO1
[2]
  mutagenic call: inactive; negative
Test System: AMES SALMONELLA TYPHIMURIUM, Strain/Indicator: TA98, Metabolic Activation: RAT LIVER S-9, PHENOBARBITAL AND BETA-NAPHTHOFLAVONE, Method: PREINCUBATION
  mutagenic call: inactive; negative
[3]
  mutagenic call: inactive; negative
Test System: AMES SALMONELLA TYPHIMURIUM, Strain/Indicator: TA100, Metabolic Activation: RAT LIVER S-9, PHENOBARBITAL AND BETA-NAPHTHOFLAVONE, Method: PREINCUBATION
  mutagenic call: inactive; negative
[4]
  mutagenic call: inactive; negative
Test System: AMES SALMONELLA TYPHIMURIUM, Strain/Indicator: TA1535, Metabolic Activation: RAT LIVER S-9, PHENOBARBITAL AND BETA-NAPHTHOFLAVONE, Method: PREINCUBATION
  mutagenic call: inactive; negative
[5]
  mutagenic call: inactive; negative
Test System: AMES SALMONELLA TYPHIMURIUM, Strain/Indicator: TA1537, Metabolic Activation: RAT LIVER S-9, PHENOBARBITAL AND BETA-NAPHTHOFLAVONE, Method: PREINCUBATION
  mutagenic call: inactive; negative
Test System: E.COLI, Strain/Indicator: WP2UVRA/PKM101, Metabolic Activation: NONE, Method: PREINCUBATION
  mutagenic call: inactive; negative
Test System: E.COLI, Strain/Indicator: WP2UVRA/PKM101, Metabolic Activation: RAT LIVER S-9, PHENOBARBITAL AND BETA-NAPHTHOFLAVONE, Method: PREINCUBATION
  mutagenic call: inactive; negative

## CC(=O)Nc1ccc(Oc2ccc(N)cc2)cc1
[6]
  mutagenic call: inactive; negative
Test System: AMES SALMONELLA TYPHIMURIUM, Strain/Indicator: TA98, Metabolic Activation: RAT, LIVER, S-9, PCB, Method: STANDARD PLATE
  mutagenic call: active; positive
[7]
  mutagenic call: inactive; negative
Test System: AMES SALMONELLA TYPHIMURIUM, Strain/Indicator: TA100, Metabolic Activation: RAT, LIVER, S-9, PCB, Method: STANDARD PLATE
  mutagenic call: active; positive

## Cc1cccc(N=Nc2ccc(N(C)C)cc2)c1
Test System: AMES SALMONELLA TYPHIMURIUM, Strain/Indicator: TA98, Metabolic Activation: RAT, LIVER, S-9, KC500 OR PHENOBARBITAL, Method: LIQUID SUSPENSION
  mutagenic call: active; positive
Test System: AMES SALMONELLA TYPHIMURIUM, Strain/Indicator: TA98, Metabolic Activation: RAT, LIVER, S-9, N-BENZYLIMIDAZOLE, Method: PREINCUBATION
  mutagenic call: active; positive
Test System: AMES SALMONELLA TYPHIMURIUM, Strain/Indicator: TA100, Metabolic Activation: RAT, LIVER, S-9, KC500 OR PHENOBARBITAL, Method: LIQUID SUSPENSION
  mutagenic call: active; positive
Test System: AMES SALMONELLA TYPHIMURIUM, Strain/Indicator: TA1538, Metabolic Activation: RAT, LIVER, S-9, PHENOBARBITAL, Method: STANDARD PLATE
  mutagenic call: active; positive
Test System: UDS RODENT HEPATOCYTES, Strain/Indicator: THY INCORP (NON-S-PHASE), Method: AUTORADIOGRAPHY
  mutagenic call: active; positive
Test System: UDS RODENT HEPATOCYTES, Strain/Indicator: THY INCORP (NON-S-PHASE), Method: LIQUID SCINTILLATION COUNTING
  mutagenic call: active; positive

## O=C(O)CCC(=O)N(O)c1ccc(Cl)cc1
[6]
  mutagenic call: inactive; negative
Test System: AMES SALMONELLA TYPHIMURIUM, Strain/Indicator: TA98, Metabolic Activation: RAT, LIVER, S-9, AROCLOR 1254, Method: STANDARD PLATE
  mutagenic call: active; positive
[7]
  mutagenic call: inactive; negative
[8]
  mutagenic call: active; positive

## O=[N+]([O-])c1ccc2c(c1)cc([N+](=O)[O-])c1ccccc12
Test System: AMES SALMONELLA TYPHIMURIUM, Strain/Indicator: TA98(1,8-DNP6), Metabolic Activation: NONE, Method: STANDARD PLATE
  mutagenic call: active; positive
Test System: AMES SALMONELLA TYPHIMURIUM, Strain/Indicator: TA98(NR), Metabolic Activation: NONE, Method: STANDARD PLATE
  mutagenic call: active; positive
[6]
  mutagenic call: active; positive
[7]
  mutagenic call: active; positive
Test System: AMES SALMONELLA TYPHIMURIUM, Strain/Indicator: YG1021, Metabolic Activation: NONE, Method: STANDARD PLATE
  mutagenic call: active; positive
Test System: AMES SALMONELLA TYPHIMURIUM, Strain/Indicator: YG1024, Metabolic Activation: NONE, Method: STANDARD PLATE
  mutagenic call: active; positive
Test System: AMES SALMONELLA TYPHIMURIUM, Strain/Indicator: YG1026, Metabolic Activation: NONE, Method: STANDARD PLATE
  mutagenic call: active; positive
Test System: AMES SALMONELLA TYPHIMURIUM, Strain/Indicator: YG1029, Metabolic Activation: NONE, Method: STANDARD PLATE
  mutagenic call: active; positive

## O=C(OCc1cccc([N+](=O)[O-])c1)c1ccccc1
[2]
  mutagenic call: inactive; negative
[3]
  mutagenic call: inactive; negative
Test System: AMES SALMONELLA TYPHIMURIUM, Strain/Indicator: TA100, Metabolic Activation: RAT, LIVER, S-9, AROCLOR 1254, Method: PREINCUBATION
  mutagenic call: inactive; negative

## c1ccc2c(c1)ccc1c3c(ccc12)CCC3
[7]
  mutagenic call: inactive; negative
[8]
  mutagenic call: inactive; negative

## CCCCc1c(N)ccc2ccccc12
[6]
  mutagenic call: inactive; negative
Test System: AMES SALMONELLA TYPHIMURIUM, Strain/Indicator: TA98, Metabolic Activation: RAT LIVER S-9, AROCLOR, Method: STANDARD PLATE
  mutagenic call: active; positive
[7]
  mutagenic call: inactive; negative
Test System: AMES SALMONELLA TYPHIMURIUM, Strain/Indicator: TA100, Metabolic Activation: RAT LIVER S-9, AROCLOR, Method: STANDARD PLATE
  mutagenic call: active; positive

## CCN(CC)CC
Test System: AMES SALMONELLA TYPHIMURIUM, Strain/Indicator: TA98, Metabolic Activation: HAMSTER, LIVER, S-9, AROCLOR 1254 (10%), Method: PREINCUBATION
  mutagenic call: inactive; negative
[2]
  mutagenic call: inactive; negative
Test System: AMES SALMONELLA TYPHIMURIUM, Strain/Indicator: TA98, Metabolic Activation: RAT, LIVER, S-9, AROCLOR 1254 (10%), Method: PREINCUBATION
  mutagenic call: inactive; negative
Test System: AMES SALMONELLA TYPHIMURIUM, Strain/Indicator: TA100, Metabolic Activation: HAMSTER, LIVER, S-9, AROCLOR 1254 (10%), Method: PREINCUBATION
  mutagenic call: inactive; negative
[3]
  mutagenic call: inactive; negative
Test System: AMES SALMONELLA TYPHIMURIUM, Strain/Indicator: TA100, Metabolic Activation: RAT, LIVER, S-9, AROCLOR 1254 (10%), Method: PREINCUBATION
  mutagenic call: inactive; negative
Test System: AMES SALMONELLA TYPHIMURIUM, Strain/Indicator: TA1535, Metabolic Activation: HAMSTER, LIVER, S-9, AROCLOR 1254 (10%), Method: PREINCUBATION
  mutagenic call: inactive; negative
[4]
  mutagenic call: inactive; negative
Test System: AMES SALMONELLA TYPHIMURIUM, Strain/Indicator: TA1535, Metabolic Activation: RAT, LIVER, S-9, AROCLOR 1254 (10%), Method: PREINCUBATION
  mutagenic call: inactive; negative
Test System: AMES SALMONELLA TYPHIMURIUM, Strain/Indicator: TA1537, Metabolic Activation: HAMSTER, LIVER, S-9, AROCLOR 1254 (10%), Method: PREINCUBATION
  mutagenic call: inactive; negative
[5]
  mutagenic call: inactive; negative
Test System: AMES SALMONELLA TYPHIMURIUM, Strain/Indicator: TA1537, Metabolic Activation: RAT, LIVER, S-9, AROCLOR 1254 (10%), Method: PREINCUBATION
  mutagenic call: inactive; negative

## CC1(C)CCCC(C)(C)N1[O]
[6]
  mutagenic call: inactive; negative
[7]
  mutagenic call: inactive; negative
[1]
  mutagenic call: inactive; negative

## COc1ccc(CCC2CO2)cc1 (stereo unspecified)
[3]
  mutagenic call: active; positive
[7]
  mutagenic call: active; positive
[4]
  mutagenic call: active; positive
Test System: AMES SALMONELLA TYPHIMURIUM, Strain/Indicator: TA1535, Metabolic Activation: NONE, Method: STANDARD PLATE
  mutagenic call: active; positive

## Cc1ccc(S(=O)(=O)N2C3c4ccccc4-c4ccccc4C32)cc1 (stereo unspecified)
[7]
  mutagenic call: active; positive

## Cc1ccc2c(c1)c(=NC(=O)CCCl)sn2C(=O)CCCl
Test System: AMES SALMONELLA TYPHIMURIUM, Strain/Indicator: TA100, Metabolic Activation: S-9, Method: STANDARD PLATE
  mutagenic call: inactive; negative
